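Method: 48-hour compound exposure of cells in 96-well plates, five concentrations, linear interpolation of endpoints. TGI: total growth inhibition.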 Where a SMILES comes first, the peptide text is derived from it. Bridges are numbered along the chain shown (N, C = ends). The star is where a group is joined. Cbz = O=C(OCc1ccccc1)*
Experiments:
Test in all cases: NCI anticancer screen, dose series, 48 h
SF-268 CNS = tested on: SF-268 CNS
IGROV1 ovarian = tested on: IGROV1 ovarian
SF-539 CNS = tested on: SF-539 CNS
NCI-H226 lung = tested on: NCI-H226 lung
K-562 leukemia = tested on: K-562 leukemia
U251 CNS = tested on: U251 CNS
CCRF-CEM leukemia = tested on: CCRF-CEM leukemia
UACC-257 melanoma = tested on: UACC-257 melanoma
COLO 205 colon = tested on: COLO 205 colon
EKVX NSCLC = tested on: EKVX NSCLC
HT29 colon = tested on: HT29 colon
DU-145 prostate = tested on: DU-145 prostate
NCI/ADR-RES ovarian = tested on: NCI/ADR-RES ovarian
MCF7 breast = tested on: MCF7 breast
SNB-75 CNS = tested on: SNB-75 CNS
786-0 renal = tested on: 786-0 renal
UO-31 renal = tested on: UO-31 renal
MDA-N = tested on: MDA-N
HCT-116 colon = tested on: HCT-116 colon
LOX IMVI melanoma = tested on: LOX IMVI melanoma
T-47D breast = tested on: T-47D breast
A549 NSCLC = tested on: A549 NSCLC
HOP-62 NSCLC = tested on: HOP-62 NSCLC
HOP-92 NSCLC = tested on: HOP-92 NSCLC
SF-295 CNS = tested on: SF-295 CNS
HCC-2998 colon = tested on: HCC-2998 colon
HL-60(TB) leukemia = tested on: HL-60(TB) leukemia
RXF 393 renal = tested on: RXF 393 renal
RPMI-8226 leukemia = tested on: RPMI-8226 leukemia
HS 578T breast = tested on: HS 578T breast
OVCAR-8 ovarian = tested on: OVCAR-8 ovarian
CAKI-1 renal = tested on: CAKI-1 renal
ACHN renal = tested on: ACHN renal
UACC-62 melanoma = tested on: UACC-62 melanoma
KM12 colon = tested on: KM12 colon
SR leukemia = tested on: SR leukemia
PC-3 prostate = tested on: PC-3 prostate
SNB-19 CNS = tested on: SNB-19 CNS
SK-MEL-2 melanoma = tested on: SK-MEL-2 melanoma
A498 renal = tested on: A498 renal
TK-10 renal = tested on: TK-10 renal
NCI-H460 lung = tested on: NCI-H460 lung
M14 melanoma = tested on: M14 melanoma
OVCAR-4 ovarian = tested on: OVCAR-4 ovarian
SK-OV-3 ovarian = tested on: SK-OV-3 ovarian
MDA-MB-435 = tested on: MDA-MB-435
OVCAR-5 ovarian = tested on: OVCAR-5 ovarian
NCI-H23 lung = tested on: NCI-H23 lung
SW-620 colon = tested on: SW-620 colon
SK-MEL-28 melanoma = tested on: SK-MEL-28 melanoma
MOLT-4 leukemia = tested on: MOLT-4 leukemia
OVCAR-3 ovarian = tested on: OVCAR-3 ovarian
SN12C renal = tested on: SN12C renal
MDA-MB-231 breast = tested on: MDA-MB-231 breast
HCT-15 colon = tested on: HCT-15 colon
SK-MEL-5 melanoma = tested on: SK-MEL-5 melanoma
NCI-H522 lung = tested on: NCI-H522 lung
MALME-3M melanoma = tested on: MALME-3M melanoma

`N=C(N)SCc1ccc2c(c1)S(=O)(=O)c1ccccc1O2` was tested, and the TGI (SF-268 CNS) was 93.1 µM, the TGI (IGROV1 ovarian) was 31.5 µM and the TGI (SF-539 CNS) was 55.7 µM. For the same compound, the TGI (NCI-H226 lung) was 48.9 µM, the TGI (K-562 leukemia) was over 100 µM and the TGI (U251 CNS) was 38.2 µM. It also gave a TGI (CCRF-CEM leukemia) of over 100 µM, a TGI (UACC-257 melanoma) of 35.2 µM and a TGI (COLO 205 colon) of over 100 µM. For the same compound, the TGI (EKVX NSCLC) was 35.2 µM, the TGI (HT29 colon) was 33.8 µM and the TGI (DU-145 prostate) was over 100 µM. The TGI (NCI/ADR-RES ovarian) was over 100 µM, the TGI (MCF7 breast) was 34.7 µM and the TGI (SNB-75 CNS) was 28.7 µM. The TGI (786-0 renal) was over 100 µM, the TGI (UO-31 renal) was 29.7 µM and the TGI (MDA-N) was 77 µM. It also gave a TGI (HCT-116 colon) of 63.1 µM, a TGI (LOX IMVI melanoma) of 60.2 µM and a TGI (T-47D breast) of 73.8 µM. The TGI (A549 NSCLC) was 39.8 µM, the TGI (HOP-62 NSCLC) was 42.4 µM and the TGI (HOP-92 NSCLC) was 42.8 µM. The TGI (SF-295 CNS) was 56.8 µM, the TGI (HCC-2998 colon) was 56.8 µM and the TGI (HL-60(TB) leukemia) was over 100 µM. The TGI (RXF 393 renal) was 47.5 µM, the TGI (RPMI-8226 leukemia) was over 100 µM and the TGI (HS 578T breast) was 78.7 µM. The TGI (OVCAR-8 ovarian) was over 100 µM, the TGI (CAKI-1 renal) was 51.7 µM and the TGI (ACHN renal) was 31.9 µM. It also gave a TGI (UACC-62 melanoma) of 34.9 µM, a TGI (KM12 colon) of 32.7 µM and a TGI (SR leukemia) of over 100 µM. The TGI (PC-3 prostate) was 37.4 µM, the TGI (SNB-19 CNS) was over 100 µM and the TGI (SK-MEL-2 melanoma) was 34.5 µM. The TGI (A498 renal) was 35.1 µM, the TGI (TK-10 renal) was 34.7 µM and the TGI (NCI-H460 lung) was 53.1 µM. The TGI (M14 melanoma) was 62.5 µM, the TGI (OVCAR-4 ovarian) was 66.9 µM and the TGI (SK-OV-3 ovarian) was 53.2 µM. For the same compound, the TGI (MDA-MB-435) was 34.3 µM, the TGI (OVCAR-5 ovarian) was 47.3 µM and the TGI (NCI-H23 lung) was 43.4 µM. For the same compound, the TGI (SW-620 colon) was 53 µM, the TGI (SK-MEL-28 melanoma) was 33.1 µM and the TGI (MOLT-4 leukemia) was over 100 µM. The TGI (OVCAR-3 ovarian) was 40.5 µM, the TGI (SN12C renal) was over 100 µM and the TGI (MDA-MB-231 breast) was over 100 µM. For the same compound, the TGI (HCT-15 colon) was 87.9 µM.

Work on `CNC(=O)C1CCCCNC(=O)CCC(NC(=O)OCc2ccccc2)C(=O)N1` (stereo not drawn) (Cbz-Glu-Lys-NHMe; lactam 1-2; configuration not given here) yielded a TGI (SF-268 CNS) of over 100 µM, a TGI (IGROV1 ovarian) of over 100 µM and a TGI (SF-539 CNS) of over 100 µM. The TGI (NCI-H226 lung) was over 100 µM, the TGI (K-562 leukemia) was over 100 µM and the TGI (U251 CNS) was over 100 µM. It also gave a TGI (CCRF-CEM leukemia) of over 100 µM, a TGI (UACC-257 melanoma) of over 100 µM and a TGI (COLO 205 colon) of over 100 µM. For the same compound, the TGI (EKVX NSCLC) was over 100 µM, the TGI (HT29 colon) was over 100 µM and the TGI (SK-MEL-5 melanoma) was over 100 µM. The TGI (DU-145 prostate) was over 100 µM, the TGI (NCI/ADR-RES ovarian) was over 100 µM and the TGI (MCF7 breast) was over 100 µM. The TGI (SNB-75 CNS) was over 100 µM, the TGI (786-0 renal) was over 100 µM and the TGI (NCI-H522 lung) was over 100 µM. The TGI (UO-31 renal) was over 100 µM, the TGI (MDA-N) was over 100 µM and the TGI (HCT-116 colon) was over 100 µM. It also gave a TGI (LOX IMVI melanoma) of over 100 µM, a TGI (T-47D breast) of over 100 µM and a TGI (A549 NSCLC) of over 100 µM. The TGI (HOP-62 NSCLC) was over 100 µM, the TGI (HOP-92 NSCLC) was over 100 µM and the TGI (SF-295 CNS) was over 100 µM. It also gave a TGI (HL-60(TB) leukemia) of over 100 µM, a TGI (RXF 393 renal) of over 100 µM and a TGI (RPMI-8226 leukemia) of over 100 µM. It also gave a TGI (HS 578T breast) of over 100 µM, a TGI (OVCAR-8 ovarian) of over 100 µM and a TGI (MALME-3M melanoma) of over 100 µM. The TGI (CAKI-1 renal) was over 100 µM, the TGI (ACHN renal) was over 100 µM and the TGI (UACC-62 melanoma) was over 100 µM. For the same compound, the TGI (KM12 colon) was over 100 µM, the TGI (PC-3 prostate) was over 100 µM and the TGI (SNB-19 CNS) was over 100 µM. It also gave a TGI (SK-MEL-2 melanoma) of over 100 µM, a TGI (A498 renal) of over 100 µM and a TGI (TK-10 renal) of over 100 µM. For the same compound, the TGI (NCI-H460 lung) was over 100 µM, the TGI (M14 melanoma) was over 100 µM and the TGI (OVCAR-4 ovarian) was over 100 µM. The TGI (SK-OV-3 ovarian) was over 100 µM, the TGI (MDA-MB-435) was over 100 µM and the TGI (OVCAR-5 ovarian) was over 100 µM. For the same compound, the TGI (NCI-H23 lung) was over 100 µM, the TGI (SW-620 colon) was over 100 µM and the TGI (SK-MEL-28 melanoma) was over 100 µM. It also gave a TGI (MOLT-4 leukemia) of over 100 µM, a TGI (OVCAR-3 ovarian) of over 100 µM and a TGI (SN12C renal) of over 100 µM. The TGI (MDA-MB-231 breast) was over 100 µM and the TGI (HCT-15 colon) was over 100 µM.
